PubChem BioAssay (NCI)
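All cell lines were grown in 96-well plates and treated with compound for 48 hours. TGI denotes the concentration required for complete inhibition of growth.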

Legend:
Test in all cases: inhibition of tumour cell growth, NCI panel, 48 h
786-0 renal = system: 786-0 renal
A498 renal = system: A498 renal
A549 NSCLC = system: A549 NSCLC
ACHN renal = system: ACHN renal
BT-549 breast = system: BT-549 breast
CAKI-1 renal = system: CAKI-1 renal
CCRF-CEM leukemia = system: CCRF-CEM leukemia
COLO 205 colon = system: COLO 205 colon
DU-145 prostate = system: DU-145 prostate
EKVX NSCLC = system: EKVX NSCLC
HCT-116 colon = system: HCT-116 colon
HCT-15 colon = system: HCT-15 colon
HL-60(TB) leukemia = system: HL-60(TB) leukemia
HOP-62 NSCLC = system: HOP-62 NSCLC
HOP-92 NSCLC = system: HOP-92 NSCLC
HS 578T breast = system: HS 578T breast
HT29 colon = system: HT29 colon
IGROV1 ovarian = system: IGROV1 ovarian
K-562 leukemia = system: K-562 leukemia
KM12 colon = system: KM12 colon
LOX IMVI melanoma = system: LOX IMVI melanoma
M14 melanoma = system: M14 melanoma
MALME-3M melanoma = system: MALME-3M melanoma
MCF7 breast = system: MCF7 breast
MDA-MB-231 breast = system: MDA-MB-231 breast
MDA-MB-435 = system: MDA-MB-435
MDA-N = system: MDA-N
MOLT-4 leukemia = system: MOLT-4 leukemia
NCI-H226 lung = system: NCI-H226 lung
NCI-H23 lung = system: NCI-H23 lung
NCI-H460 lung = system: NCI-H460 lung
NCI-H522 lung = system: NCI-H522 lung
NCI/ADR-RES ovarian = system: NCI/ADR-RES ovarian
OVCAR-3 ovarian = system: OVCAR-3 ovarian
OVCAR-4 ovarian = system: OVCAR-4 ovarian
OVCAR-5 ovarian = system: OVCAR-5 ovarian
OVCAR-8 ovarian = system: OVCAR-8 ovarian
PC-3 prostate = system: PC-3 prostate
RPMI-8226 leukemia = system: RPMI-8226 leukemia
RXF 393 renal = system: RXF 393 renal
SF-268 CNS = system: SF-268 CNS
SF-295 CNS = system: SF-295 CNS
SF-539 CNS = system: SF-539 CNS
SK-MEL-2 melanoma = system: SK-MEL-2 melanoma
SK-MEL-28 melanoma = system: SK-MEL-28 melanoma
SK-MEL-5 melanoma = system: SK-MEL-5 melanoma
SK-OV-3 ovarian = system: SK-OV-3 ovarian
SN12C renal = system: SN12C renal
SNB-19 CNS = system: SNB-19 CNS
SNB-75 CNS = system: SNB-75 CNS
SR leukemia = system: SR leukemia
SW-620 colon = system: SW-620 colon
T-47D breast = system: T-47D breast
TK-10 renal = system: TK-10 renal
U251 CNS = system: U251 CNS
UACC-257 melanoma = system: UACC-257 melanoma
UACC-62 melanoma = system: UACC-62 melanoma
HCC-2998 colon = system: HCC-2998 colon
UO-31 renal = system: UO-31 renal

SMILES: FC(F)(F)c1nc2nc(Cl)c(Cl)nc2n1CCCN1CCOCC1
- TGI (786-0 renal): > 100 µM
- TGI (A498 renal): > 100 µM
- TGI (A549 NSCLC): > 100 µM
- TGI (ACHN renal): > 100 µM
- TGI (BT-549 breast): > 100 µM
- TGI (CAKI-1 renal): 14.7 µM
- TGI (CCRF-CEM leukemia): > 100 µM
- TGI (COLO 205 colon): > 100 µM
- TGI (DU-145 prostate): 63.2 µM
- TGI (EKVX NSCLC): 50.5 µM
- TGI (HCT-116 colon): > 100 µM
- TGI (HCT-15 colon): > 100 µM
- TGI (HL-60(TB) leukemia): 40.3 µM
- TGI (HOP-62 NSCLC): > 100 µM
- TGI (HOP-92 NSCLC): > 100 µM
- TGI (HS 578T breast): > 100 µM
- TGI (HT29 colon): > 100 µM
- TGI (IGROV1 ovarian): > 100 µM
- TGI (K-562 leukemia): 39.6 µM
- TGI (KM12 colon): > 100 µM
- TGI (LOX IMVI melanoma): > 100 µM
- TGI (M14 melanoma): > 100 µM
- TGI (MALME-3M melanoma): > 100 µM
- TGI (MCF7 breast): > 100 µM
- TGI (MDA-MB-231 breast): > 100 µM
- TGI (MDA-MB-435): > 100 µM
- TGI (MDA-N): > 100 µM
- TGI (MOLT-4 leukemia): 48.6 µM
- TGI (NCI-H226 lung): > 100 µM
- TGI (NCI-H23 lung): > 100 µM
- TGI (NCI-H460 lung): > 100 µM
- TGI (NCI-H522 lung): > 100 µM
- TGI (NCI/ADR-RES ovarian): > 100 µM
- TGI (OVCAR-3 ovarian): > 100 µM
- TGI (OVCAR-4 ovarian): > 100 µM
- TGI (OVCAR-5 ovarian): > 100 µM
- TGI (OVCAR-8 ovarian): > 100 µM
- TGI (PC-3 prostate): > 100 µM
- TGI (RPMI-8226 leukemia): > 100 µM
- TGI (RXF 393 renal): 68.1 µM
- TGI (SF-268 CNS): > 100 µM
- TGI (SF-295 CNS): > 100 µM
- TGI (SF-539 CNS): > 100 µM
- TGI (SK-MEL-2 melanoma): > 100 µM
- TGI (SK-MEL-28 melanoma): > 100 µM
- TGI (SK-MEL-5 melanoma): > 100 µM
- TGI (SK-OV-3 ovarian): > 100 µM
- TGI (SN12C renal): > 100 µM
- TGI (SNB-19 CNS): > 100 µM
- TGI (SNB-75 CNS): > 100 µM
- TGI (SR leukemia): 33.9 µM
- TGI (SW-620 colon): > 100 µM
- TGI (T-47D breast): > 100 µM
- TGI (TK-10 renal): > 100 µM
- TGI (U251 CNS): > 100 µM
- TGI (UACC-257 melanoma): 64 µM
- TGI (UACC-62 melanoma): > 100 µM

SMILES: O=C1NC(SSC2=NNC3(C(=O)N2)c2ccccc2-c2ccccc23)=NNC12c1ccccc1-c1ccccc12
- TGI (786-0 renal): > 10 µM
- TGI (A498 renal): > 10 µM
- TGI (A549 NSCLC): > 10 µM
- TGI (ACHN renal): > 10 µM
- TGI (BT-549 breast): > 10 µM
- TGI (CAKI-1 renal): > 10 µM
- TGI (CCRF-CEM leukemia): > 10 µM
- TGI (COLO 205 colon): > 10 µM
- TGI (DU-145 prostate): > 10 µM
- TGI (EKVX NSCLC): > 10 µM
- TGI (HCC-2998 colon): > 10 µM
- TGI (HCT-116 colon): > 10 µM
- TGI (HCT-15 colon): > 10 µM
- TGI (HL-60(TB) leukemia): > 10 µM
- TGI (HOP-62 NSCLC): > 10 µM
- TGI (HOP-92 NSCLC): > 10 µM
- TGI (HS 578T breast): > 10 µM
- TGI (HT29 colon): > 10 µM
- TGI (IGROV1 ovarian): > 10 µM
- TGI (K-562 leukemia): > 10 µM
- TGI (KM12 colon): > 10 µM
- TGI (LOX IMVI melanoma): > 10 µM
- TGI (M14 melanoma): > 10 µM
- TGI (MALME-3M melanoma): > 10 µM
- TGI (MCF7 breast): > 10 µM
- TGI (MDA-MB-231 breast): > 10 µM
- TGI (MDA-MB-435): > 10 µM
- TGI (MDA-N): > 10 µM
- TGI (MOLT-4 leukemia): > 10 µM
- TGI (NCI-H226 lung): > 10 µM
- TGI (NCI-H23 lung): > 10 µM
- TGI (NCI-H460 lung): > 10 µM
- TGI (NCI-H522 lung): > 10 µM
- TGI (NCI/ADR-RES ovarian): > 10 µM
- TGI (OVCAR-3 ovarian): > 10 µM
- TGI (OVCAR-4 ovarian): > 10 µM
- TGI (OVCAR-5 ovarian): > 10 µM
- TGI (OVCAR-8 ovarian): > 10 µM
- TGI (PC-3 prostate): > 10 µM
- TGI (RPMI-8226 leukemia): > 10 µM
- TGI (RXF 393 renal): > 10 µM
- TGI (SF-268 CNS): > 10 µM
- TGI (SF-295 CNS): > 10 µM
- TGI (SF-539 CNS): > 10 µM
- TGI (SK-MEL-2 melanoma): > 10 µM
- TGI (SK-MEL-28 melanoma): > 10 µM
- TGI (SK-MEL-5 melanoma): > 10 µM
- TGI (SK-OV-3 ovarian): > 10 µM
- TGI (SN12C renal): > 10 µM
- TGI (SNB-19 CNS): > 10 µM
- TGI (SNB-75 CNS): > 10 µM
- TGI (SR leukemia): > 10 µM
- TGI (SW-620 colon): > 10 µM
- TGI (T-47D breast): > 10 µM
- TGI (TK-10 renal): > 10 µM
- TGI (U251 CNS): > 10 µM
- TGI (UACC-257 melanoma): > 10 µM
- TGI (UACC-62 melanoma): > 10 µM
- TGI (UO-31 renal): > 10 µM
